Calls of active or inactive are those of the source. The rule behind the calls is not given here.
Experiments:
[1] = system: Avian myeloblastosis virus; test: Inhibition of AMV reverse transcriptase assessed as [3H]dGTP incorporation at 5 ug by toluene-based scintillation fluid counting in presence of poly rC.oligo dG template primer
JLS-V9 [2] = test: Inhibition of reverse transcriptase from Rauscher murine leukemia virus propagated in JLS-V9 cells at 5 to 10 ug/ml; assay type: cell-based
[3] = system: Avian myeloblastosis virus; test: Inhibition of AMV reverse transcriptase at 50 to 60 ug/ml
JLS-V9 [4] = test: Inhibition of reverse transcriptase from Rauscher murine leukemia virus propagated in JLS-V9 cells at 40 to 60 ug/ml; assay type: cell-based
[5] = system: Avian myeloblastosis virus; test: Inhibition of AMV reverse transcriptase assessed as [3H]TTP incorporation at 5 ug by toluene-based scintillation fluid counting in presence of poly dA.oligo dT template primer
[6] = system: Avian myeloblastosis virus; test: Inhibition of AMV reverse transcriptase assessed as [3H]TTP incorporation at 5 ug by toluene-based scintillation fluid counting in presence of poly rA.oligo dT template primer
[7] = system: Avian myeloblastosis virus; test: Inhibition of AMV reverse transcriptase assessed as [3H]TTP incorporation at 5 ug by toluene-based scintillation fluid counting in presence of activated DNA template primer
[8] = system: Avian myeloblastosis virus; test: Inhibition of AMV reverse transcriptase assessed as [3H]TTP incorporation at 5 ug by toluene-based scintillation fluid counting in presence of 70S RNA template primer
[9] = system: Avian myeloblastosis virus; test: Inhibition of AMV reverse transcriptase assessed as [3H]TTP incorporation at 5 ug by toluene-based scintillation fluid counting in presence of 2 to 20 ug poly rA.oligo dT template primer
[10] = system: Avian myeloblastosis virus; test: Inhibition of AMV reverse transcriptase assessed as [3H]TTP incorporation by toluene-based scintillation fluid counting in presence of 0.10 umole MnCl2
[11] = system: Avian myeloblastosis virus; test: Inhibition of AMV reverse transcriptase assessed as [3H]TTP incorporation by toluene-based scintillation fluid counting in presence of 0.50 umole MnCl2
JLS-V9 [12] = test: Inhibition of reverse transcriptase from Rauscher murine leukemia virus propagated in JLS-V9 cells at 6 to 18 ug/ml; assay type: cell-based
[13] = system: Avian myeloblastosis virus; test: Inhibition of AMV reverse transcriptase at 6 to 12 ug/ml
[14] = system: Avian myeloblastosis virus; test: Inhibition of AMV reverse transcriptase assessed as [3H]TMP incorporation by toluene-based scintillation fluid counting
[15] = system: Avian myeloblastosis virus; test: Inhibition of AMV reverse transcriptase at 30 to 40 ug/ml
JLS-V9 [16] = test: Inhibition of reverse transcriptase from MuLV propagated in JLS-V9 cells at 30 to 40 ug/ml; assay type: cell-based; details: Rauscher murine leukemia virus
[17] = system: Avian myeloblastosis virus; test: Inhibition of AMV reverse transcriptase assessed as [3H]TTP incorporation at 5 ug by toluene-based scintillation fluid counting in presence of template primer
[18] = system: Avian myeloblastosis virus; test: Inhibition of AMV reverse transcriptase at 45 to 50 ug/ml
[19] = system: Avian myeloblastosis virus; test: Inhibition of AMV reverse transcriptase at 12 to 18 ug/ml
[20] = system: Avian myeloblastosis virus; test: Inhibition of AMV reverse transcriptase at 40 to 50 ug/ml

Row | Compound | inhibition [1] [%] | inhibition [5] [%] | inhibition [6] [%] | inhibition [7] [%] | inhibition [8] [%] | Activity [9] | Activity [10] | Activity [11] | Activity (JLS-V9 [2]) | Activity (JLS-V9 [4]) | Activity (JLS-V9 [12]) | Activity [1] | Activity [14] | inhibition [15] [%] | inhibition (JLS-V9 [16]) [%] | Activity [17] | also measured
1 | COc1cc2c(cc1OC)C(OC)N(C)c1c-2ccc2cc3c(cc12)OCO3.O=C(O)Br (stereo not given) | 2 | 93 | 94 | 92 | 91 | inactive | Active | Active | Active | Active | – | – | – | – | – | – | inhibition [3]: 50%
2 | COc1cc2c(ccc3c4cc(OC)c(OC)cc4c[n+](C)c23)cc1O | – | – | – | – | – | inactive | Active | Active | Active | – | Active | Active | Active | > 90 | > 90 | Active | inhibition [13]: 50%
3 | COc1cc2ccc3c4cc(OC)c(OC)cc4c(OC)[n+](C)c3c2cc1OC | 3 | 97 | 98 | 96 | 95 | inactive | Active | Active | Active | – | Active | – | – | > 90 | > 90 | – | inhibition [19]: 50%

More lines, main results first:

Row | inhibition [1] [%] | inhibition [5] [%] | inhibition [6] [%] | inhibition [7] [%] | inhibition [8] [%] | Activity [9] | Activity [10] | Activity [11] | Compound | Activity (JLS-V9 [2]) | Activity (JLS-V9 [4]) | Activity (JLS-V9 [12]) | Activity [1] | Activity [14] | inhibition [15] [%] | inhibition (JLS-V9 [16]) [%] | Activity [17] | also measured
4 | 2 | 94 | 95 | 93 | 92 | inactive | Active | Active | COc1cc2ccc3c4cc5c(cc4c(OC)[n+](C)c3c2cc1OC)OCO5 | Active | Active | – | – | – | – | – | – | inhibition [18]: 50%
5 | – | – | – | – | – | inactive | Active | Active | COc1cc2c[n+](C)c3c4cc5c(cc4ccc3c2cc1OC)OCO5 | Active | Active | – | Active | Active | – | – | Active | inhibition [20]: 50%

Reference: ChEMBL document CHEMBL1158150, “Inhibition of reverse transcriptase activity by benzophenanthridine alkaloids” (J Nat Prod, 1979)
